SMILES strings stand for the structures.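 Each compound was tested at five concentrations against cells in 96-well plates for 48 hours. At the GI50, growth is halved. The concentration for full growth arrest is given as TGI.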

Test systems include HCC-2998 colon; NCI-H522 lung; CAKI-1 renal; SF-539 CNS; HL-60(TB) leukemia; OVCAR-5 ovarian; SW-620 colon; NCI-H226 lung; SF-268 CNS; SR leukemia.
Assay in all cases: growth of human tumour cells (NCI), 48 h

Turning to `Cc1nc(C(N)=S)sc1C(=O)/C=C/c1c(O)ccc2ccccc12`, the TGI is more than 100 µM in the test on HCC-2998 colon; more than 63 µM with NCI-H522 lung; more than 100 µM in the test on CAKI-1 renal; more than 100 µM in the test with SF-539 CNS; 65.3 µM in the test with HL-60(TB) leukemia; more than 100 µM in the test with OVCAR-5 ovarian. In addition, the TGI in the test with SW-620 colon, in the test on NCI-H226 lung and with SF-268 CNS was more than 100 µM throughout.
For the molecule `CCNC(=O)COc1ccc(Cl)cc1Cl`, the TGI with NCI-H522 lung, in the test with CAKI-1 renal, with SF-539 CNS, with SR leukemia, in the test with HL-60(TB) leukemia and with OVCAR-5 ovarian was more than 100 µM each time. For the same molecule, the TGI in the test on SW-620 colon, in the test on NCI-H226 lung and with SF-268 CNS was more than 100 µM each time.
Regarding `CC(=O)/C(=C/c1ccccc1F)C(=O)c1ccccc1`, the TGI in the test on HCC-2998 colon is 45.1 µM; in the test with NCI-H522 lung, more than 100 µM; in the test on CAKI-1 renal, more than 100 µM; with SF-539 CNS, more than 100 µM; in the test with HL-60(TB) leukemia, more than 100 µM; in the test with OVCAR-5 ovarian, more than 100 µM. The results for the TGI in the test on SW-620 colon, in the test on NCI-H226 lung and in the test on SF-268 CNS were 56.1 µM, more than 100 µM and more than 100 µM, respectively.
On to `CC(C)(C)C(=O)[CH-]C(=O)C(C)(C)C.CC(C)(C)C(=O)[CH-]C(=O)C(C)(C)C.CN(C)c1ccc([O-])cc1.CN(C)c1ccc([O-])cc1.[Ti+4]`, for which the GI50 in the test with HCC-2998 colon is more than 100 µM; with NCI-H522 lung, more than 100 µM; with CAKI-1 renal, more than 100 µM; with SF-539 CNS, 55.8 µM; in the test with HL-60(TB) leukemia, more than 100 µM; in the test with OVCAR-5 ovarian, more than 100 µM. Besides, the GI50 with SW-620 colon, with NCI-H226 lung and in the test on SF-268 CNS was more than 100 µM in each case. Moreover, the TGI in the test with HCC-2998 colon, with NCI-H522 lung, in the test on CAKI-1 renal, in the test on SF-539 CNS, in the test on HL-60(TB) leukemia and in the test on OVCAR-5 ovarian was more than 100 µM throughout. In addition, the TGI in the test with SW-620 colon, in the test with NCI-H226 lung and with SF-268 CNS was more than 100 µM in each case.
For `O=c1oc2ccccc2[n+]([O-])c1-c1ccccc1`, the TGI in the test with HCC-2998 colon, in the test with NCI-H522 lung, in the test on CAKI-1 renal, in the test with SF-539 CNS, with HL-60(TB) leukemia and with OVCAR-5 ovarian was more than 100 µM throughout. Further, the TGI in the test with SW-620 colon, in the test with NCI-H226 lung and with SF-268 CNS was more than 100 µM each time.
On to `NC(=S)NN/C=C(\C=Nc1ccccc1)[N+](=O)[O-]`, for which the TGI in the test with NCI-H522 lung, with CAKI-1 renal, in the test with SF-539 CNS, in the test on HL-60(TB) leukemia, with OVCAR-5 ovarian and in the test on SW-620 colon was more than 100 µM in each case. The TGI with NCI-H226 lung and in the test on SF-268 CNS was more than 100 µM in each case.
With `N/N=C1\C(=O)N(CCc2ccccc2)C(=O)C1C(=O)NCCc1ccccc1` (centres undefined), the TGI with NCI-H522 lung, in the test on CAKI-1 renal, with SF-539 CNS, with SR leukemia, in the test on HL-60(TB) leukemia and with SW-620 colon was more than 100 µM each time. Besides, the TGI in the test on NCI-H226 lung and in the test on SF-268 CNS was more than 100 µM each time.
Take `O=C(/C=C/c1ccccc1)CC(=O)CCC(=O)Nc1ccc(Cl)cc1`: the TGI in the test on HCC-2998 colon, in the test with NCI-H522 lung, in the test with CAKI-1 renal, with SF-539 CNS, in the test on HL-60(TB) leukemia and in the test on OVCAR-5 ovarian was more than 100 µM throughout. The TGI in the test with SW-620 colon, in the test on NCI-H226 lung and in the test on SF-268 CNS was more than 100 µM throughout.
For `Cc1c2ccccc2cc2ccc3oc([N+](=O)[O-])cc3c12`, the TGI in the test on HCC-2998 colon, with CAKI-1 renal, in the test on SF-539 CNS, in the test on HL-60(TB) leukemia, with OVCAR-5 ovarian and with SW-620 colon was more than 100 µM in each case. In the test with SF-268 CNS, the TGI is more than 100 µM.
On to `Cc1c(C(=O)O)oc2ccc([N+](=O)[O-])cc12`, for which the TGI in the test with HCC-2998 colon, in the test on NCI-H522 lung, in the test on CAKI-1 renal, in the test on SF-539 CNS, in the test on HL-60(TB) leukemia and with OVCAR-5 ovarian was more than 100 µM each time. Moreover, the TGI in the test on SW-620 colon and with SF-268 CNS was more than 100 µM in each case.
On to `COc1cc2c(cc1OC)C(C(=O)c1cccc(OC)c1OC)C(=O)N(C)CC2` (centres undefined), for which the TGI with NCI-H522 lung, in the test on CAKI-1 renal, with HL-60(TB) leukemia, with SW-620 colon, in the test with NCI-H226 lung and in the test with SF-268 CNS was more than 100 µM in each case.
Turning to `Oc1ccccc1-c1nn(CNc2ccccc2Cl)c(=S)o1`, the GI50 with NCI-H522 lung was more than 100 µM; with CAKI-1 renal, more than 100 µM; in the test with SF-539 CNS, 37.7 µM; in the test on SR leukemia it was 25.2 µM; in the test with OVCAR-5 ovarian, 37.2 µM; in the test with SW-620 colon, 41.9 µM. The GI50 in the test on NCI-H226 lung and in the test on SF-268 CNS was more than 100 µM throughout. Moreover, the TGI with NCI-H522 lung is more than 100 µM; with CAKI-1 renal, more than 100 µM; in the test on SF-539 CNS it was 97.7 µM; with SR leukemia it was 89.6 µM; in the test on OVCAR-5 ovarian it was more than 100 µM; in the test on SW-620 colon it was more than 100 µM. The TGI with NCI-H226 lung and in the test on SF-268 CNS was more than 100 µM each time.
As for `O=C1CCCCN1CCCCC#Cc1cccc(C#Cc2cccnc2)c1`, the GI50 with HCC-2998 colon was 6.52 µM; in the test with NCI-H522 lung, 19 µM; with CAKI-1 renal it was 35.5 µM; in the test on SF-539 CNS, 31.8 µM; in the test with HL-60(TB) leukemia, 16.2 µM; in the test with OVCAR-5 ovarian, 17.7 µM. For the same molecule, the GI50 is 39.9 µM with SW-620 colon, 12.9 µM in the test with NCI-H226 lung and 27 µM in the test on SF-268 CNS. The TGI in the test with HCC-2998 colon was 23.1 µM; in the test with NCI-H522 lung, 63.7 µM; in the test with CAKI-1 renal it was more than 100 µM; in the test with SF-539 CNS, more than 100 µM; with HL-60(TB) leukemia, 70 µM; in the test with OVCAR-5 ovarian, 41.7 µM. Also, the TGI was more than 100 µM with SW-620 colon, 34 µM with NCI-H226 lung and more than 100 µM with SF-268 CNS.

Values taken from PubChem BioAssay (NCI).
